According to US20050112573A1, “Method of detecting toxic substance” (priority 2001, published 2005):

Tested on: yeast genes (level of expressed mRNA)
Experiment: DNA chip analysis of expressed mRNA of yeast genes after 2 h culture with a toxic chemical substance
Type: cell-based, Saccharomyces cerevisiae S288C
Procedure: Yeast (Saccharomyces cerevtisiae S288C (α SUC2mal mel gap2 CUP1)) were cultured at 25° C. on YPD medium (yeast extract 1%, polypepton 2%, glucose 2%). One of toxic chemical substances was added to the cell at logarithmic growth phase, and the cell was further cultured for two hours. Cell was cultured without any chemical substance in the same condition, and was used as control. Concentrations of the chemical substances were defined to inhibit the growth of the yeast but not lead to death.
After the completion of cultivation, the culture was centrifuged to collect the cells. To the cells, sodium acetate buffer (50 mM sodium acetate, 10 mM EDTA, 1% SDS) was added, and the mixture was shaken at 65° C. for five minutes, followed by returning to room temperature, and obtaining the supernatant, which procedure was repeated two times. To the supernatant, ½ amount of a solution of phenol/chloroform was added, and the mixture was centrifuged to give a supernatant, which was added with an equal amount of chloroform, and the mixture was centrifuged to give a supernatant. To the supernatant, an equal amount of isopropanol containing 0.3 M sodium acetate was added, and the mixture was allowed to stand at room temperature for 30 minutes, after which the mixture was centrifuged to give a sediment of the whole RNAs. Seventy % ethanol was added to the sediment, and the mixture was again centrifuged to give a sediment, which was then dried and dissolved in water. mRNA was isolated from the whole RNAs as followings. In view of the fact that a poly A chain is attached to the 3′ terminus of mRNA, a polynucleotide having a poly T structure which was immobilized on the surface of latex beads was used to trap the mRNA, and then the mRNA was washed and eluted with spine column (Oligotex-dT30<Super>mRNA Purification Kit, Takara). Reverse transcription of the mRNA was conducted with a reverse transcriptase (Super Script II Reverse Transcriptase; catalogue No. 18064-014, GibcoBRL) using fluorescence-labeled nucleotides to give cDNAs that were introduced with Cy3-dUTP or Cy5-dUTP during the reverse transcription.
The labeled cDNAs were dissolved in TE buffer (10 mM Tris-HCl/1 mM EDTA, pH8.0), and the solution was dropped on the DNA chip containing the whole genes of yeast (DNA Chip Research Inc. Japan) so that the cDNAs were hybridized on the DNA chip at 65° C. for over 12 hours. The fluoresces intensity of the DNA chip was read with a scanner, and the ratio relative to the fluorescence intensity resulting from the absence of chemical substance was estimated as the following, which is shown in Tables 1 to 9: [formula]
In the Tables, “Intensity” indicated in the rightmost column is a value of the level of expressed mRNA of each gene in control cells as divided by the average level of the expressions of the whole genes.

## S=C([S-])NCCNC(=S)[S-].[Zn+2] [(11), zinc N,N′-ethylenebis(dithiocarbamate)]
Gene YDR128W
  The level of expressed mRNA in the presence of chemical substance/absence: YDR128W: 0.3
Gene YDR133C
  The level of expressed mRNA in the presence of chemical substance/absence: YDR133C: 1.3
Gene YDR140W
  The level of expressed mRNA in the presence of chemical substance/absence: YDR140W: 1.7
Gene YDR221W
  The level of expressed mRNA in the presence of chemical substance/absence: YDR221W: 0.7
Gene YDR250C
  The level of expressed mRNA in the presence of chemical substance/absence: YDR250C: 0.6
Gene YDR271C
  The level of expressed mRNA in the presence of chemical substance/absence: YDR271C: 0.6
Gene YDR278C
  The level of expressed mRNA in the presence of chemical substance/absence: YDR278C: 0.4
Gene YDR281C
  The level of expressed mRNA in the presence of chemical substance/absence: YDR281C: 0.8
Gene YDR316W
  The level of expressed mRNA in the presence of chemical substance/absence: YDR316W: 1.3
Gene YDR338C
  The level of expressed mRNA in the presence of chemical substance/absence: YDR338C: 1.9
Gene YDR366C
  The level of expressed mRNA in the presence of chemical substance/absence: YDR366C: 1.7
Gene YDR380W
  level of expressed mRNA in the presence of chemical substance/in its absence: 0.4
Gene YDR410C
  level of expressed mRNA in the presence of chemical substance/in its absence: 1.6
Gene YDR421W
  The level of expressed mRNA in the presence of chemical substance/absence: YDR421W: 1.0
Gene YDR425W
  The level of expressed mRNA in the presence of chemical substance/absence: YDR425W: 0.9
Gene YDR485C
  The level of expressed mRNA in the presence of chemical substance/absence: YDR485C: 0.9
Gene YDR487C
  level of expressed mRNA in the presence of chemical substance/in its absence: 2.1
Gene YDR502C
  level of expressed mRNA in the presence of chemical substance/in its absence: 1.3
Gene YDR504C
  The level of expressed mRNA in the presence of chemical substance/absence: YDR504C: 1.2
Gene YEL011W
  level of expressed mRNA in the presence of chemical substance/in its absence: 3.7
Gene YEL020C
  level of expressed mRNA in the presence of chemical substance/in its absence: 1.3
Gene YEL044W
  The level of expressed mRNA in the presence of chemical substance/absence: YEL044W: 1.6
Gene YER026C
  level of expressed mRNA in the presence of chemical substance/in its absence: 0.9
Gene YER069W
  level of expressed mRNA in the presence of chemical substance/in its absence: 1.5
Gene YER092W
  The level of expressed mRNA in the presence of chemical substance/absence: YER092W: 0.9
Gene YER182W
  The level of expressed mRNA in the presence of chemical substance/absence: YER182W: 1.5
Gene YFL042C
  The level of expressed mRNA in the presence of chemical substance/absence: YFL042C: 5.4
Gene YFR015C
  level of expressed mRNA in the presence of chemical substance/in its absence: 3.9
Gene YFR026C
  The level of expressed mRNA in the presence of chemical substance/absence: YFR026C: 0.8
Gene YFR056C
  The level of expressed mRNA in the presence of chemical substance/absence: YFR056C: 1.3
Gene YGL001C
  level of expressed mRNA in the presence of chemical substance/in its absence: 1.6
Gene YGL022W
  level of expressed mRNA in the presence of chemical substance/in its absence: 0.8
Gene YGL039W
  level of expressed mRNA in the presence of chemical substance/in its absence: 1.1
Gene YGL041C
  The level of expressed mRNA in the presence of chemical substance/absence: YGL041C: 0.6
Gene YGL045W
  The level of expressed mRNA in the presence of chemical substance/absence: YGL045W: 1.2
Gene YGL057C
  The level of expressed mRNA in the presence of chemical substance/absence: YGL057C: 1.3
Gene YGL088W
  The level of expressed mRNA in the presence of chemical substance/absence: YGL088W: 0.8
Gene YGL104C
  level of expressed mRNA in the presence of chemical substance/in its absence: 1.8
Gene YGL126W
  level of expressed mRNA in the presence of chemical substance/in its absence: 1.0
Gene YGL134W
  level of expressed mRNA in the presence of chemical substance/in its absence: 1.1
Gene YGL154C
  level of expressed mRNA in the presence of chemical substance/in its absence: 0.9
Gene YGL183C
  The level of expressed mRNA in the presence of chemical substance/absence: YGL183C: 0.8
Gene YGL209W
  level of expressed mRNA in the presence of chemical substance/in its absence: 0.8
Gene YGL223C
  The level of expressed mRNA in the presence of chemical substance/absence: YGL223C: 1.3
Gene YGL253W
  level of expressed mRNA in the presence of chemical substance/in its absence: 1.0
Gene YGR038W
  The level of expressed mRNA in the presence of chemical substance/absence: YGR038W: 1.4
Gene YGR060W
  level of expressed mRNA in the presence of chemical substance/in its absence: 0.8
Gene YGR139W
  The level of expressed mRNA in the presence of chemical substance/absence: YGR139W: 0.9
Gene YGR156W
  The level of expressed mRNA in the presence of chemical substance/absence: YGR156W: 0.5
Gene YGR198W
  The level of expressed mRNA in the presence of chemical substance/absence: YGR198W: 1.0
Gene YGR210C
  The level of expressed mRNA in the presence of chemical substance/absence: YGR210C: 1.0
Gene YGR211W
  The level of expressed mRNA in the presence of chemical substance/absence: YGR211W: 0.8
Gene YGR237C
  The level of expressed mRNA in the presence of chemical substance/absence: YGR237C: 1.6
Gene YGR243W
  The level of expressed mRNA in the presence of chemical substance/absence: YGR243W: 1.7
Gene YGR250C
  The level of expressed mRNA in the presence of chemical substance/absence: YGR250C: 1.6
Gene YGR266W
  The level of expressed mRNA in the presence of chemical substance/absence: YGR266W: 1.2
Gene YGR277C
  The level of expressed mRNA in the presence of chemical substance/absence: YGR277C: 1.2
